Laboratory results: article PMC10381184, “Unprecedented Antimicrobial and Cytotoxic Polyketides from Cultures of Diaporthe africana sp. nov” (Journal of Fungi, 2023)
pIC50: −log10 of the molar value. Converted amounts (≈) assume the structure as drawn. Where two headings read alike, the source gives them in different places. Marks after values point to notes of the source that are not given here.

Tests used:
Assay type in all cases: cell-based
[1] = test system: Chromobacterium violaceum DSM 30191; assay: MIC serial dilution assay; design: key: (-): No inhibition; conditions: starting concentration 66.7 μg/mL
Experimental: (§1) The Minimum Inhibitory Concentration (MIC) of the isolated metabolites (1–8) was evaluated using serial dilution assays in a 96-well microtiter plate against a panel of Gram-positive bacteria, namely Bacillus subtilis DSM 10, Mycobacterium smegmatis ATCC 700084 and Staphylococcus aureus DSM 346; Gram-negative bacteria, including Acinetobacter baumannii DSM 30008, Chromobacterium violaceum DSM 30191, Escherichia coli DSM 1116 and Pseudomonas aeruginosa PA14 and fungal cultures of Candida albicans DSM 1665, Mucor hiemalis DSM 2656, Rhodotorula glutinis DSM 10134, Schizosaccharomyces pombe DSM 70572 and Wickerhamomyces anomalus DSM 6766, according to previously described protocols. The MTT-based cytotoxicity assay was performed against several cancer cell lines (human endocervical adenocarcinoma KB 3.1, mouse fibroblasts L929, squamous cancer A431, breast cancer MCF-7, lung cancer A549, ovary cancer SK-OV-3, and prostate cancer PC-3) in accordance with our previously established protocols.

[2] = test system: Candida albicans DSM 1665; assay: MIC serial dilution assay; design: key: (-): No inhibition; conditions: starting concentration 66.7 μg/mL
Experimental: as §1

[3] = test system: Acinetobacter baumannii DSM 30008; assay: MIC serial dilution assay; design: key: (-): No inhibition; conditions: Acinetobacter baumanii, starting concentration 66.7 μg/mL
Experimental: as §1

[4] = test system: Staphylococcus aureus DSM 346; assay: MIC serial dilution assay; design: key: (-): No inhibition
Experimental: as §1

[5] = test system: Mycobacterium smegmatis ATCC 700084; assay: MIC serial dilution assay; design: key: (-): No inhibition; conditions: starting concentration 66.7 μg/mL
Experimental: as §1

Mucor hiemalis DSM 2656 = assay: MIC serial dilution assay; design: key: (-): No inhibition
Experimental: as §1

[6] = test system: Schizosaccharomyces pombe DSM 70572; assay: MIC serial dilution assay; design: key: (-): No inhibition
Experimental: as §1

[7] = test system: Wickerhamomyces anomalus DSM 6766; assay: MIC serial dilution assay; design: key: (-): No inhibition; conditions: starting concentration 66.7 μg/mL
Experimental: as §1

Bacillus subtilis DSM 10 = assay: MIC serial dilution assay; design: key: (-): No inhibition
Experimental: as §1

[8] = test system: Pseudomonas aeruginosa PA14; assay: MIC serial dilution assay; design: key: (-): No inhibition
Experimental: as §1

[9] = test system: Rhodotorula glutinis DSM 10134; assay: MIC serial dilution assay; design: key: (-): No inhibition; conditions: Rhodoturula glutinis, starting concentration 66.7 μg/mL
Experimental: as §1

[10] = test system: Escherichia coli DSM 1116; assay: MIC serial dilution assay; design: key: (-): No inhibition; conditions: starting concentration 66.7 μg/mL
Experimental: as §1

[11] = test system: human endocervical adenocarcinoma KB 3.1; assay: MTT-based cytotoxicity assay; conditions: Homo sapiens, KB 3-1
Experimental: as §1

mouse fibroblasts L929 = assay: MTT-based cytotoxicity assay; conditions: Mus musculus
Experimental: as §1

squamous cancer A431 = assay: MTT-based cytotoxicity assay; conditions: Homo sapiens, A-431
Experimental: as §1

ovary cancer SK-OV-3 = assay: MTT-based cytotoxicity assay; conditions: Homo sapiens, SK-OV-3
Experimental: as §1

breast cancer MCF-7 = assay: MTT-based cytotoxicity assay; conditions: Homo sapiens, MCF7
Experimental: as §1

prostate cancer PC-3 = assay: MTT-based cytotoxicity assay
Experimental: as §1

lung cancer A549 = assay: MTT-based cytotoxicity assay; conditions: Homo sapiens
Experimental: as §1

[12] = DSM346, starting concentration 66.7 μg/mL, read-out: MIC
[13] = DSM2656, starting concentration 66.7 μg/mL, read-out: MIC
[14] = starting concentration 66.7 μg/mL
[15] = DSM10, starting concentration 66.7 μg/mL, read-out: MIC
[16] = KB3.1, starting concentration 37 µg/mL, read-out: IC50
[17] = starting concentration 37 µg/mL, read-out: IC50
[18] = DSM70572, starting concentration 66.7 μg/mL, read-out: MIC
[19] = Rhodotorula glutinis, DSM10134, read-out: MIC

SMILES	MIC [1]	MIC [2]	MIC [3]	MIC [4, 12]	MIC [5]	MIC (Mucor hiemalis DSM 2656; [13])	MIC [7]	MIC (Bacillus subtilis DSM 10; [15])	MIC [8, 14]	MIC [10]	pIC50 [11, 16]	pIC50 (mouse fibroblasts L929; [17])	also measured
CC(C)=CCc1ccc(O)c2c1C(O)(c1cc(C)cc3c1O[C@H](C(C)(C)O)CO3)OC2 (mixture of isomers) [Compound 3, isoprenylisobenzofuran C1/C2]	-	-	-	33.3 µg/mL	-	66.6 µg/mL	-	33.3 µg/mL	-	-	4.48	4.29	MIC [6, 14]: -; MIC [9]: -
CC(C)=CCc1ccc(O)c2c1C(c1cc(C)cc3c1O[C@H](C(C)(C)O)CO3)NC2=O (mixture of isomers) [Compound 5, diaporisoindole A/B]	-	-	-	66.6 µg/mL	-	66.6 µg/mL	-	66.6 µg/mL	-	-	4.66	4.26	MIC [6, 18]: 33.3 µg/mL; MIC [9, 19]: 66.6 µg/mL
O=C(O)c1cn(C2CC2)c2cc(N3CCNCC3)c(F)cc2c1=O [Ciprobay, reference compound]													MIC ([3]; Acinetobacter baumannii, DSM30008, read-out: MIC): 0.26 µg/mL (≈ 0.785 µM)
CC(C)=CCc1ccc(O)c2c1C(O)(c1cc(C)cc3c1O[C@H](C(C)(C)O)CO3)NC2=O (some centres unmarked) [Compound 4, diaporisoindole F1/F2]	-	-	-	66.6 µg/mL (≈ 152 µM)	-	33.3 µg/mL (≈ 75.8 µM)	-	66.6 µg/mL (≈ 152 µM)	-	-	4.50	4.23	MIC [6, 18]: 33.3 µg/mL (≈ 75.8 µM); MIC [9, 19]: 33.3 µg/mL (≈ 75.8 µM)
C/C(=C\c1csc(C)n1)[C@@H]1C[C@@H]2O[C@]2(C)CCC[C@H](C)[C@H](O)[C@@H](C)C(=O)C(C)(C)[C@@H](O)CC(=O)O1 [Epothilone B, reference compound]													pIC50 (squamous cancer A431): 10.26; pIC50 (ovary cancer SK-OV-3): 10.00; pIC50 [11]: 10.35; pIC50 (breast cancer MCF-7): 10.21; pIC50 (prostate cancer PC-3): 10.14; pIC50 (lung cancer A549): 10.16; pIC50 (mouse fibroblasts L929): 9.37
CNC(C)C1CCC(N)C(OC2C(N)CC(N)C(OC3OCC(C)(O)C(NC)C3O)C2O)O1 (centres unmarked) [Gentamicin, reference compound]													MIC ([8]; PA14, starting concentration 66.7 μg/mL, read-out: MIC): 0.21 µg/mL (≈ 0.44 µM)
NC[C@H]1O[C@H](O[C@H]2[C@H](O)[C@@H](O[C@H]3O[C@H](CO)[C@@H](O)[C@H](N)[C@H]3O)[C@H](N)C[C@@H]2N)[C@H](O)[C@@H](O)[C@@H]1O [Kanamycin, reference compound]					1.7 ^k µg/mL								
C[C@@H]1[C@H](O)[C@@H](C)/C=C/C=C/CC/C=C/C=C/C=C/C=C/C(O[C@H]2O[C@H](C)[C@@H](O)[C@H](N)[C@@H]2O)CC2O[C@](O)(CC(O)C(O)CCC(O)CC(O)CC(O)CC(=O)O[C@H]1C)CC(O)C2C(=O)O (some centres unmarked) [Nystatin, reference compound]		16.6 ^n µg/mL					8.3 ^n µg/mL						MIC (Mucor hiemalis DSM 2656; [14]): 8.3 ^n µg/mL; MIC (Mucor hiemalis DSM 2656; starting concentration 66.7 μg/mL, listed as nystatin): 8.3 µg/mL (≈ 8.96 µM); MIC [6, 14]: 8.3 ^n µg/mL; MIC [9]: 4.2 ^n µg/mL
CN(C)[C@@H]1C(=O)C(C(N)=O)=C(O)[C@@]2(O)C(=O)C3=C(O)c4c(O)cccc4[C@@](C)(O)[C@H]3[C@H](O)[C@@H]12 [Oxytetracyclin, reference compound]	0.83 ^o µg/mL									1.7 ^o µg/mL			MIC [4, 14]: 0.83 ^o µg/mL; MIC (Bacillus subtilis DSM 10; [14]): 8.3 ^o µg/mL
